According to PubChem BioAssay (NCI):
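Briefly, cells in 96-well plates were exposed to five compound concentrations for 48 h, and endpoints were estimated by linear interpolation. TGI is the concentration that stops growth completely.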

What was measured:
Experiment in all cases: DTP human tumour cell line panel, 48 h
[1] = test system: NCI-H226 lung
[2] = test system: SK-MEL-28 melanoma
[3] = test system: HCC-2998 colon
[4] = test system: M14 melanoma
[5] = test system: MCF7 breast

Row | Compound | TGI [1] | TGI [2] | TGI [3] | TGI [4] | TGI [5]
1 | CN(/N=C/C=N/N(C)C1=NCCCCN1)C1=NCCCCN1 | > 100 µM | > 100 µM | > 100 µM | > 100 µM | > 100 µM
2 | FC(F)(Sc1ccccc1)c1nc2ccccc2o1 | > 100 µM | > 100 µM | > 100 µM | > 100 µM | > 100 µM
3 | CC1(C)CN=C(Nc2cccc(C(F)(F)F)c2)S1 | > 100 µM | > 100 µM | > 100 µM | > 100 µM | > 100 µM
4 | c1ccc2c(c1)Nc1nc3nonc3nc1N2 | > 100 µM | > 100 µM | > 100 µM | > 100 µM | > 100 µM
5 | COc1cccc(N2C(=O)CSC2c2cc(OC)c(OC)c(OC)c2)c1 (stereo not given) | 87.2 µM | > 100 µM | 85.2 µM | > 100 µM | > 100 µM
6 | CC(C)NC(=O)OCc1c(COC(=O)NC(C)C)n(C)c2c1ccc1ccccc12 | 5.43 µM | 5.75 µM | 9.86 µM | 3.2 µM | 1.88 µM
7 | COC(=O)C1(Cc2ccccc2)Cc2ccc3c(c2C1=O)CCC3 (stereo not given) | > 100 µM | > 100 µM | > 100 µM | 97.7 µM | > 100 µM
8 | CC(CO)C1=CC(C#CCOCc2ccccc2)N(C(=O)Oc2ccccc2)c2ccccc21 (stereo not given) | > 100 µM | > 100 µM | > 100 µM | > 100 µM | 
9 | Cn1c2ccccc2c(=NNc2ccccc2C(=O)O)c2ccccc21 | 45.8 µM | 57.5 µM | 46.8 µM | 53.5 µM | 30.5 µM
10 | CCOC(=O)CCC(NC(=O)c1ccc(OCc2nc3ccccc3n3cccc23)cc1)C(=O)OCC (stereo not given) | > 100 µM | > 100 µM | > 100 µM | > 100 µM | > 100 µM
11 | COc1cc([C@@H]2c3[nH]c4ccccc4c3C(Nc3ccc([N+](=O)[O-])cc3)[C@H]3COC(=O)N23)cc(OC)c1O (stereo not given in full) | 0.532 µM | 0.704 µM | 20.3 µM | 2.2 µM | 0.624 µM
12 | CCOC(=O)c1c(-c2ccc(OC)cc2)c(C#N)c(=S)n(C2OC(CO)C(O)C(O)C2O)c1-c1ccccc1 (stereo not given) |  | > 100 µM | > 100 µM | > 100 µM | > 100 µM
13 | COC(=O)C(Cc1ccccc1)OC(=O)C(N)CC(=O)O (stereo not given) | > 100 µM | > 100 µM | > 100 µM | > 100 µM | > 100 µM
14 | N#CCCN(CCC#N)c1ccc(/C=C2\N=C(c3ccccc3)N(c3ccccn3)C2=O)cc1 | > 100 µM | > 100 µM |  | > 100 µM | > 100 µM
15 | CNC(=O)CCCN(C)C(=O)CCCCC(=O)N(C)C | > 100 µM | > 100 µM | > 100 µM | > 100 µM | > 100 µM
16 | CN(C)c1ccc(/C=C(\NC(=O)c2ccccc2)C2NC(Cc3c[nH]c4ccccc34)C(=O)O2)cc1 (stereo not given) | > 100 µM | > 100 µM | > 100 µM | > 100 µM | > 100 µM
17 | c1cncc(-c2ncc3cccnc3n2)c1 | > 100 µM |  | > 100 µM |  | > 100 µM
18 | O=C(O)c1ccc(C(c2c(O)c3ccccc3oc2=O)c2c(O)c3ccccc3oc2=O)cc1 |  | > 100 µM | > 100 µM | > 100 µM | > 100 µM

Row | Compound | TGI [1] | TGI [2] | TGI [3] | TGI [4] | TGI [5]
19 | Cc1n[nH]c(=O)n1/N=C/c1c[nH]c2ccccc12 |  | > 100 µM | > 100 µM | > 100 µM | > 100 µM
20 | O=c1oc2ccc3ccccc3c2cc1-c1nc2ccccc2o1 | > 63.6 µM | > 59.2 µM | > 100 µM | > 56 µM | 20.5 µM
21 | CCOC(=O)CCC(NC(=O)c1ccc(Nc2nc3ccccc3nc2-c2cccs2)cc1)C(=O)OCC (stereo not given) | > 100 µM | > 100 µM | > 100 µM | > 100 µM | > 100 µM
22 | CCOC(=O)C1=c2[nH]c3cccc4cccc(c43)n2C=C(C(C)=O)C1CC(C)=O (stereo not given) |  | > 100 µM | > 100 µM | > 100 µM | > 100 µM
23 | N#CC(c1cc2c(cc1Br)OCO2)N1CCOCC1 (stereo not given) | > 100 µM | > 100 µM | > 100 µM | > 100 µM | > 100 µM
24 | COc1cccc(/C=C2\CCCCCC2=O)c1 | > 100 µM | > 100 µM | > 100 µM | > 100 µM | 
25 | O=C(NCCO)Nc1c(C(F)(F)F)cc(-c2ccccc2)[nH]c1=O | > 100 µM | > 100 µM | > 100 µM | > 100 µM | > 100 µM
26 | O=C(CCc1cccc(O)c1)NCCc1ccc(O)cc1 | > 100 µM | > 100 µM |  | > 100 µM | > 100 µM
27 | CN(C)c1nc(-c2ccccc2)c(C(=O)c2c[nH]c3ccccc23)s1 | > 100 µM | > 100 µM | > 70.6 µM | > 100 µM | > 100 µM
28 | CCOC(=O)[C@@]12CCC(C1=O)[C@](C)(O)C[C@@H]2c1ccccc1 | > 100 µM | > 100 µM |  | > 100 µM | 
29 | CCCCn1c2c(n(CCCC)c1=S)-c1c(n(CCCC)c(=S)n1CCCC)SSSS2 | 80.8 µM | 31.6 µM | 26.7 µM | 17.5 µM | > 100 µM
30 | O=C1CC2(CCNCC2)C(=O)N1N1CCCC1 | > 100 µM |  | > 100 µM | > 100 µM | > 100 µM
31 | COc1nc2sc3c(c2c(=O)n1CCCSSCCCn1c(OC)nc2sc4c(c2c1=O)CCCC4)CCCC3 | > 100 µM | > 100 µM | > 100 µM | > 100 µM | > 100 µM
32 | CCCCCCCCCCCCCCCCCCOCC(CO[P+](=O)O)OCCCCCCCCCCCCCCCCCC (stereo not given) | > 50 µM | > 50 µM | > 50 µM | > 50 µM | > 50 µM
33 | O=C1C=C(NCCc2cc(Br)c(O)c(Br)c2)C(=O)c2ncccc21 | 3.72 µM | 3.5 µM | 18.5 µM | 2.7 µM | 5.29 µM
34 | COC(=O)CCn1cnc2c(SC)ncnc21 | > 100 µM | > 100 µM |  | > 100 µM | > 100 µM
35 | NC1=NNC2(C(N)=N1)c1ccccc1-c1ccccc12 | > 10 µM | > 10 µM | > 10 µM | > 10 µM | > 10 µM
36 | CCOC(=O)NC(NC(C)CC)(C(F)(F)F)C(F)(F)F (stereo not given) | > 100 µM | > 100 µM |  | > 100 µM | > 100 µM
